Test results: patent publication US11098040B2, “Compounds and methods of use” (Ferro Therapeutics, Inc., priority 2018, dated 2021)

Legend:
Type in all cases: cell-based
H1299 = assay: Cell viability assay (CellTiter Glo), lung cancer cell line H1299; conditions: Homo sapiens, NCI-H1299, 96 hours
Protocol: (§1) Cell viability assay was performed to assess the potency of the compounds in human cancer cell lines KP4 (pancreatic ductal adenocarcinoma), MiaPaCa-2 (pancreatic carcinoma), AsPC-1 (pancreatic adenocarcinoma, ascites), 143B (osteosarcoma), and SJSA-1 (osteosarcoma). Selected compounds were also assayed in a human breast epithelial cell line MCF-10A, a nontumorigenic cell line as a control to assess differential activity. Cells at a density of 500-5,000 cells/well were seeded in 96-well plates and incubated at 37° C. overnight. A series of 9 different concentrations of compound stocks (500×) were created by 3-fold serial dilution in DMSO. These compounds were further diluted in culture media and then added to cells so that the final DMSO concentration was equal to 0.25% or less. After 96 hours of incubation, 50 μL of CellTiter Glo reagent (Promega) was added to each well and luminescence was measured after 10 minutes using EnVision (PerkinElmer). Compounds titrated from top concentration of up to 30 μM. The select compounds were tested initially from 30 μM as the top concentration in duplicates (range of 4.6 nM-30 μM). […] Luminescence from cells treated with DMSO alone was set as Max and % of inhibition was calculated as follows: Inhibition %=(Max-Sample value)/Max*100. Data was analyzed using XL-fit software (ID Business Solutions Ltd.). IC50, relative IC50, or % of top inhibition was calculated.
(§2) A group of selected analogs were further profiled in cell viability assays described above in multiple additional cancer cell lines, including lung cancer, melanoma, hepatocarcinoma, pancreatic cancer, leukemia, lymphoma, ovarian cancer, breast cancer, colon cancer, and sarcoma cell lines. Initial cell seeding numbers were adjusted for each cell line. Typically, 500-5000 cells/well for adherent cells and 5000-10000/well for suspension cells were seeded in 96-well plates.

H2228 = assay: Cell viability assay (CellTiter Glo), lung cancer cell line H2228; conditions: Homo sapiens, NCI-H2228; lung cancer cell line, 96 hours, CellTiter Glo; read-out: IC50 H2228
Protocol: as §1, §2

MDA-MB-435S = assay: Cell viability assay (CellTiter Glo), melanoma cell line MDA-MB-435S; conditions: Homo sapiens, 96 hours
Protocol: as §1, §2

Huh7 = assay: Cell viability assay (CellTiter Glo), hepatocellular carcinoma Huh7; conditions: Homo sapiens, Huh-7, 96 hours
Protocol: as §1, §2

PANC1 = assay: Cell viability assay (CellTiter Glo), pancreatic cell line PANC1; conditions: Homo sapiens, PANC-1, 96 hours
Protocol: as §1, §2
(§3) The results of the assay in the pancreatic cell lines are given in Table 15a for PANC1, Table 15b for MiaPaCa-2, and Table 15c for AsPC-1.

MiaPaCa-2 = assay: Cell viability assay (CellTiter Glo), pancreatic carcinoma MiaPaCa-2; conditions: Homo sapiens, MIA PaCa-2; pancreatic carcinoma, 96 hours, CellTiter Glo; read-out: IC50 MiaPaCa-2
How it was run: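 MiaPaCa-2 and AsPC-1 cells were seeded overnight at 37 °C and exposed for 96 h to 9-point, 3-fold dilutions from up to 30 μM (final DMSO ≤0.25%). CellTiter Glo luminescence was read, and inhibition was calculated relative to DMSO-only cells. IC50, relative IC50 or % top inhibition was derived.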

AsPC-1 = assay: Cell viability assay (CellTiter Glo), pancreatic adenocarcinoma AsPC-1; conditions: Homo sapiens, ASPC1; pancreatic adenocarcinoma, ascites, 96 hours, CellTiter Glo; read-out: IC50 AsPC-1
Protocol: as §1, §3

MV-4-1 = assay: Cell viability assay (CellTiter Glo), leukemia cell line MV-4-1; conditions: 96 hours
Protocol: as §1, §2
(§4) The results of the assay in the leukemia cell lines are given in Table 16a for MV-4-1 and Table 16b for HL-60 and Kasumi-1.

HL-60 = assay: Cell viability assay (CellTiter Glo), leukemia cell line HL-60; conditions: Homo sapiens, 96 hours
Protocol: as §1, §2, §4

Kasumi-1 = assay: Cell viability assay (CellTiter Glo), leukemia cell line Kasumi-1; conditions: Homo sapiens, 96 hours
Protocol: as §1, §2, §4

REC-1 = assay: Cell viability assay (CellTiter Glo), lymphoma cell line REC-1; conditions: Homo sapiens, Rec1, 96 hours
Protocol: as §1, §2

Raji = assay: Cell viability assay (CellTiter Glo), lymphoma cell line Raji; conditions: Homo sapiens, 96 hours
Protocol: as §1, §2

SK-OV-3 = assay: Cell viability assay (CellTiter Glo), ovarian cancer cell line SK-OV-3; conditions: Homo sapiens, 96 hours
Protocol: as §1, §2

HCC1954 = assay: Cell viability assay (CellTiter Glo), breast cancer cell line HCC1954; conditions: Homo sapiens, 96 hours
Protocol: as §1, §2

HT29 = assay: Cell viability assay (CellTiter Glo), colon cancer cell line HT29; conditions: Homo sapiens, HT-29, 96 hours
Protocol: as §1, §2

SW480 = assay: Cell viability assay (CellTiter Glo), colon cancer cell line SW480; conditions: Homo sapiens, 96 hours
Protocol: as §1, §2

HT-1080 luc2 = assay: Cell viability assay (CellTiter Glo), fibrosarcoma HT-1080 luc2; conditions: Homo sapiens, fibrosarcoma expressing a luciferase gene, 96 hours, CellTiter Glo, read-out: IC50 HT-1080 luc2
Protocol: as §1, §2
(§5) The results of the assay in sarcoma cell lines are given in Table 21a for HT-1080 luc2 (fibrosarcoma expressing a luciferase gene), Table 21b for 143B (osteosarcoma), and Table 21c for SJSA-1 (osteosarcoma).

SJSA-1 = assay: Cell viability assay (CellTiter Glo), osteosarcoma SJSA-1; conditions: Homo sapiens, 96 hours
Protocol: as §1, §5

MCF-10A = assay: Cell viability assay (CellTiter Glo), non-tumorigenic breast epithelial cell line MCF-10A; conditions: Homo sapiens, 96 hours
How it was run: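 Non-tumorigenic breast epithelial MCF-10A line, exposed for 96 hours to compound (top concentration up to 30 μM, 3-fold steps, duplicates, final DMSO 0.25% or less). ATP luminescence (CellTiter Glo) normalised to DMSO controls yields IC50, relative IC50 or % top inhibition; paclitaxel served as cytotoxic control.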

SMILES	IC50 (H1299) [nM]	IC50 (H2228) [nM]	IC50 (MDA-MB-435S) [nM]	IC50 (Huh7) [nM]	IC50 (PANC1) [nM]	IC50 (MiaPaCa-2) [nM]	IC50 (AsPC-1) [nM]	IC50 (MV-4-1) [nM]	IC50 (HL-60) [nM]	IC50 (Kasumi-1) [nM]	IC50 (REC-1) [nM]	IC50 (Raji) [nM]	IC50 (SK-OV-3) [nM]	IC50 (HCC1954) [nM]	IC50 (HT29) [nM]	IC50 (SW480) [nM]	IC50 (HT-1080 luc2) [nM]	IC50 (SJSA-1) [nM]	IC50 (MCF-10A) [nM]
COC(=O)[C@H]1Cc2c([nH]c3ccccc23)[C@H](c2ccc(N[C@]34CC5C[C@H](C[C@H](C5)C3)C4)cc2)N1C(=O)CCl [Example 29]	5	32	6	13	27	33	23	48	31	28	27	9	12	38	49	2000	5	14	410
C[C@H]1Cc2c([nH]c3ccccc23)[C@H](c2ccc(N3CCOCC3)cc2)N1C(=O)CCl [Example 103]	21	34	38	84	161			230			186	74	113	137	448		28		1370
C[C@H]1Cc2c([nH]c3ccc(F)cc23)[C@H](c2ccc(N3CCOCC3)cc2)N1C(=O)CCl [Example 114]									120	145								115	

The next lines start with results.

IC50 (H1299) [nM]	IC50 (H2228) [nM]	IC50 (MDA-MB-435S) [nM]	IC50 (Huh7) [nM]	IC50 (PANC1) [nM]	IC50 (MiaPaCa-2) [nM]	IC50 (AsPC-1) [nM]	IC50 (MV-4-1) [nM]	IC50 (HL-60) [nM]	IC50 (Kasumi-1) [nM]	IC50 (REC-1) [nM]	IC50 (Raji) [nM]	IC50 (SK-OV-3) [nM]	IC50 (HCC1954) [nM]	IC50 (HT29) [nM]	IC50 (SW480) [nM]	IC50 (HT-1080 luc2) [nM]	IC50 (SJSA-1) [nM]	SMILES	IC50 (MCF-10A) [nM]
41	112	47	120	> 1000			524			516	151	230	333	338	10500	38		COC(=O)[C@H]1Cc2c([nH]c3ccccc23)[C@H](c2ccc(NCC3CC3)cc2)N1C(=O)CCl [Example 83]	3790
13	50	17	73	78			129			70	28	47	96	228	533	12		COC(=O)c1ccc([C@@H]2c3[nH]c4ccc(F)cc4c3C[C@H](C(=O)OC)N2C(=O)CCl)cc1 [Example 92]	1140
32	57	17	43	69			168			106	38	63	108	174		19		C[C@H]1Cc2c([nH]c3ccccc23)[C@H](c2ccc(C3CCCC3)cc2)N1C(=O)CCl [Example 109]	1140
